Each structure is given as a SMILES string. Activity calls are given as the source filed them. Where only a bound is given, the exact number is not on record here.

Test [1] concerns the target Beta-2 adrenergic receptor (Homo sapiens, UniProt P07550). The test can be described thus: beta2AR agonists driving receptor internalization, dose response, cell-based, FAP fluorogen, flow cytometry, cherry pick 1 (AID 588763). The format is functional. In general terms: In flow cytometry, cells or beads pass a laser one at a time.
The target of test [2] is T1, Fatty acid synthase (Homo sapiens, UniProt P49327). The test can be described thus: FAS thioesterase domain inhibitors, dose response, biochemical, kinetic fluorescence intensity (AID 624326).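 Also: rate of fluorescence rise from hydrolysis of a fluorogenic O-methyl fluorescein ester substrate.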 The format is functional.
For test [3], the target named is T1, Fatty acid synthase. The test can be described thus: FAS thioesterase domain inhibitors, dose response, biochemical, endpoint fluorescence intensity, uHTS hits (AID 624327).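 Also: fluorescence from hydrolysis of an O-methyl fluorescein acyl ester substrate by the enzyme.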 The format is functional.
Test [4] in a line: cytotoxicity in HEK-293T cells, dose response, cytotoxicity control for BCR NF-kB inhibitor project, luminescence, B-cell screen hits (AID 489021).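 Also: HEK-293T cells carrying an NF-kB luciferase reporter; cells exposed to compound for about 14 hours before viability readout.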 The format is functional, cell-based.
A further test relates to HEK293. The test can be described thus: cytotoxicity in HEK293T NF-kB-Luc cells, SAR follow-up, cytotoxicity control for NF-kB activator project, cell-based, resazurin fluorescence (AID 493251). The format is functional. To be noted: Homo sapiens. (Alamar Blue is a resazurin reagent that responds to reducing activity.)
Test [5] deals with Candida albicans. The test can be described thus: fluconazole resistance reversal in C. albicans, dose response, CaCi-2 strain, Alamar Blue, dry powder, set 4 (AID 488943). The format is functional, organism-based.
The subject of test [6] is Candida albicans. Kind of test: growth inhibition of resistant C. albicans, dose response, CaCi-8 strain, fluconazole, dry powder, set 4 (AID 488950). The format is functional, organism-based.
Test [7] concerns Candida albicans. Kind of test: C. albicans growth inhibition with fluconazole, dose response, antifungal resistance reversal project, CaCi-2 strain, Alamar Blue, dry powder, set 2 (AID 488930). The format is functional, organism-based.
Test [8] relates to Candida albicans. The test can be described thus: growth inhibition of azole-resistant C. albicans, dose response, CaCi-8 strain, Alamar Blue, dry powder, set 2 (AID 488909). The format is functional, organism-based.
The subject of test [9] is Candida albicans. Kind of test: Candida albicans growth inhibition, compound alone, dose response, counter-screen for antifungal drug resistance project, CaCi-2 strain, Alamar Blue, dry powder, set 2 (AID 488893). The format is functional, organism-based.
Test [10] in a line: THP-1 cell cytotoxicity, dose response, cytotoxicity control for non-replicating M. tuberculosis project (AID 489025). The format is functional.
For another test, the target named is T2, Aminopeptidase N (Plasmodium falciparum FcB1/Columbia, UniProt O96935).
T2 sequence (O96935 whole entry): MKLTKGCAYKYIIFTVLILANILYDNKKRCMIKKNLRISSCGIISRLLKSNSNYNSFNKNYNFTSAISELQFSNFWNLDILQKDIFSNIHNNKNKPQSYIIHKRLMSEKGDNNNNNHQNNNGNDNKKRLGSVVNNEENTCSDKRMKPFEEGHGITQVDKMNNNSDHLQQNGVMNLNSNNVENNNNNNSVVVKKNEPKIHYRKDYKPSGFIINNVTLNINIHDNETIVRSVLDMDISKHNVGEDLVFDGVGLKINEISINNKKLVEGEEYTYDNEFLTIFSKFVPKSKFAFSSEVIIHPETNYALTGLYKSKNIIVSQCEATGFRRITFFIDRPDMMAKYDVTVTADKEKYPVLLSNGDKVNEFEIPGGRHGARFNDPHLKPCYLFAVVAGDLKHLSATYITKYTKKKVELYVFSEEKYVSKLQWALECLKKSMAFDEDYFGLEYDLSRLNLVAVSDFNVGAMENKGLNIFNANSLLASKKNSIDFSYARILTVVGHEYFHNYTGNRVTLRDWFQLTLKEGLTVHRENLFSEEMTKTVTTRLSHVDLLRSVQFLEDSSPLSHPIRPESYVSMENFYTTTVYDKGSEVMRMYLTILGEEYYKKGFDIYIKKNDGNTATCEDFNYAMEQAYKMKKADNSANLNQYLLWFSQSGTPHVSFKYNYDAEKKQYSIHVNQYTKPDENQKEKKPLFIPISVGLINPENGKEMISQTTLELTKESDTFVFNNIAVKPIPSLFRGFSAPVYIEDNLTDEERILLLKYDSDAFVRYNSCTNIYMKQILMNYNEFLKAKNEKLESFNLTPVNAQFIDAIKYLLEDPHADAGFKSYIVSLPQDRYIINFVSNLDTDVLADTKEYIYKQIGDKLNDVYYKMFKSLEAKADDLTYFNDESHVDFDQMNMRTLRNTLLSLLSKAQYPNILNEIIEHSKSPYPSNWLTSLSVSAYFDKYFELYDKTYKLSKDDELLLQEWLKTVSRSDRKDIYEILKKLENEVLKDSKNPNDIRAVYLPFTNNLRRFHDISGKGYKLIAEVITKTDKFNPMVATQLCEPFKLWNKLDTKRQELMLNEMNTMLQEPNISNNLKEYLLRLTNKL
Kind of test: P. falciparum M1AAP inhibitors, biochemical, fluorogenic H-Leu-NHMec substrate, 1536-well (AID 1445). Set-up: species or system Plasmodium falciparum 3D7, 3D7.

A short description of test [11]: Vero E6 cell cytotoxicity, dose response, cytotoxicity control for non-replicating M. tuberculosis project, secondary assay (AID 492998). The format is functional, VeroE6. To be noted: Vero C1008.
Test [12] deals with T3, Induced myeloid leukemia cell differentiation protein Mcl-1 (Homo sapiens, UniProt Q07820). Kind of test: MCL1-BIM BH3 interaction inhibitors, dose response, biochemical, fluorescence polarization, BIM-BH3 peptide, 1536-well (AID 2217). (Fluorescence polarisation rises when a labelled molecule tumbles more slowly, as on binding a larger partner.)
The test system of test [13] is Streptococcus sp. 'group A'. The test can be described thus: growth inhibition of control SK(-) GAS strain, dose response, counter-screen for streptokinase expression inhibitor project, luminescence, kanamycin, BacTiterGlo, confirmation (AID 1900). The format is functional, organism-based.
In a further test the target is Phospholipase A2 (Homo sapiens, UniProt P04054). The format is functional.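 Also: confirmatory dose-response counterscreen on phospholipase A2, testing hits that came from an ultra-high-throughput screen for ATG4B inhibitors.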
The target in another test is T4, Streptokinase A (Streptococcus pyogenes serotype M1, UniProt P10520).
T4 sequence (P10520 whole entry): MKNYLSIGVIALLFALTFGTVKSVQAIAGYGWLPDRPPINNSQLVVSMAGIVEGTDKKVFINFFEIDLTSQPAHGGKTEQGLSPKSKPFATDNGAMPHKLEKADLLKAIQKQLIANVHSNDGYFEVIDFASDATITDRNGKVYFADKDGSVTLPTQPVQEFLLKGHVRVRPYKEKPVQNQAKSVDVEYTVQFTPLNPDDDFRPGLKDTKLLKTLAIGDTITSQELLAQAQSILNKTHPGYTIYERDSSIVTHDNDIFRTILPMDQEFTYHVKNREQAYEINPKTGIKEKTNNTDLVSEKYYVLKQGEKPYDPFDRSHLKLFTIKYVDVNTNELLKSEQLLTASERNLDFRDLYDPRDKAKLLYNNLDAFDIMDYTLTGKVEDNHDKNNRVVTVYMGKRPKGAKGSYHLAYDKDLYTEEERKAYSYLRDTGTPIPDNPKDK
The test can be described thus: S. pyogenes streptokinase expression inhibitors, potency, dose response, plasminogen activation absorbance, OD405 (AID 1914).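 Also: secreted streptokinase activity via plasminogen activation per viability signal from cell pellet.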 The format is functional, Streptococcus pyogenes M1 GAS.

The target in a further test is Bcl-2-like protein 1 (Homo sapiens, UniProt Q07817). Kind of test: BCL-XL inhibitors, dose response, selectivity assay for MCL1 inhibitor project, biochemical, fluorescence polarization, 1536-well (AID 2218).
In test [14] the target is T3, Induced myeloid leukemia cell differentiation protein Mcl-1. The format is functional.
The target of another test is Estrogen receptor beta (Homo sapiens, UniProt Q92731). Kind of test: ERβ–SRC-3 coactivator interaction inhibitors, confirmation, orthogonal assay, biochemical, ELISA, streptavidin-HRP readout (AID 1060).
Test [15] can be described thus: HEp-2 cell cytotoxicity, dose response, cytotoxicity control for RSV inhibitor project, HTS (AID 2410). The format is functional. Conditions: human respiratory syncytial virus.
The next test concerns Streptococcus. The test can be described thus: Group A Streptococcus viability loss, dose response, counter-screen for streptokinase expression inhibitor project, luminescence, BacTiterGlo (AID 1915).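 Also: potency for reduction of bacterial viability or growth.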 The format is functional, organism-based.
In another test the target is Cysteine protease ATG4B (Homo sapiens, UniProt Q9Y4P1). The format is functional.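 Also: Fluorescence-based dose-response confirmation assay measuring inhibition of ATG4B activity.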
Sequence of Cysteine protease ATG4B (Q9Y4P1 whole entry): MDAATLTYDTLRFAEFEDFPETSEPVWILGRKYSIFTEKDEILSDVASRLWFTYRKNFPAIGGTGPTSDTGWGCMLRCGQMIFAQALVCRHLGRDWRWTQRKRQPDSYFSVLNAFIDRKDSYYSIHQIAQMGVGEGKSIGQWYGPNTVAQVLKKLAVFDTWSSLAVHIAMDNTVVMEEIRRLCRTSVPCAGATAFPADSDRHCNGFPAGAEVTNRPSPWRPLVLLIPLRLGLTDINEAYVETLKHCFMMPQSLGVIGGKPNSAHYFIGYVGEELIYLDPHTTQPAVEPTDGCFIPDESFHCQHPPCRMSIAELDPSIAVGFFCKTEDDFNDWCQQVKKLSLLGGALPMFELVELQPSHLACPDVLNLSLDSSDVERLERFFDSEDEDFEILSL

T3 sequence (Q07820 whole entry): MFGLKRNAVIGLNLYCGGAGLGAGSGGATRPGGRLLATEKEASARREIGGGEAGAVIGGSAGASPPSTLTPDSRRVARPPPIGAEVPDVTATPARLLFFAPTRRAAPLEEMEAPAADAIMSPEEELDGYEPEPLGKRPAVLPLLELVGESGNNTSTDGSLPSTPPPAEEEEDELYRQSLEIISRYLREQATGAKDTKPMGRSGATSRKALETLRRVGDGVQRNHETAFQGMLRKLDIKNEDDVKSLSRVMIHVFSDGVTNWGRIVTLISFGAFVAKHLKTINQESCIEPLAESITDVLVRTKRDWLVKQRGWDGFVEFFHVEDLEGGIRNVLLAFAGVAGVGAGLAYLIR
T1 sequence (P49327 whole entry, the tested form may be a part): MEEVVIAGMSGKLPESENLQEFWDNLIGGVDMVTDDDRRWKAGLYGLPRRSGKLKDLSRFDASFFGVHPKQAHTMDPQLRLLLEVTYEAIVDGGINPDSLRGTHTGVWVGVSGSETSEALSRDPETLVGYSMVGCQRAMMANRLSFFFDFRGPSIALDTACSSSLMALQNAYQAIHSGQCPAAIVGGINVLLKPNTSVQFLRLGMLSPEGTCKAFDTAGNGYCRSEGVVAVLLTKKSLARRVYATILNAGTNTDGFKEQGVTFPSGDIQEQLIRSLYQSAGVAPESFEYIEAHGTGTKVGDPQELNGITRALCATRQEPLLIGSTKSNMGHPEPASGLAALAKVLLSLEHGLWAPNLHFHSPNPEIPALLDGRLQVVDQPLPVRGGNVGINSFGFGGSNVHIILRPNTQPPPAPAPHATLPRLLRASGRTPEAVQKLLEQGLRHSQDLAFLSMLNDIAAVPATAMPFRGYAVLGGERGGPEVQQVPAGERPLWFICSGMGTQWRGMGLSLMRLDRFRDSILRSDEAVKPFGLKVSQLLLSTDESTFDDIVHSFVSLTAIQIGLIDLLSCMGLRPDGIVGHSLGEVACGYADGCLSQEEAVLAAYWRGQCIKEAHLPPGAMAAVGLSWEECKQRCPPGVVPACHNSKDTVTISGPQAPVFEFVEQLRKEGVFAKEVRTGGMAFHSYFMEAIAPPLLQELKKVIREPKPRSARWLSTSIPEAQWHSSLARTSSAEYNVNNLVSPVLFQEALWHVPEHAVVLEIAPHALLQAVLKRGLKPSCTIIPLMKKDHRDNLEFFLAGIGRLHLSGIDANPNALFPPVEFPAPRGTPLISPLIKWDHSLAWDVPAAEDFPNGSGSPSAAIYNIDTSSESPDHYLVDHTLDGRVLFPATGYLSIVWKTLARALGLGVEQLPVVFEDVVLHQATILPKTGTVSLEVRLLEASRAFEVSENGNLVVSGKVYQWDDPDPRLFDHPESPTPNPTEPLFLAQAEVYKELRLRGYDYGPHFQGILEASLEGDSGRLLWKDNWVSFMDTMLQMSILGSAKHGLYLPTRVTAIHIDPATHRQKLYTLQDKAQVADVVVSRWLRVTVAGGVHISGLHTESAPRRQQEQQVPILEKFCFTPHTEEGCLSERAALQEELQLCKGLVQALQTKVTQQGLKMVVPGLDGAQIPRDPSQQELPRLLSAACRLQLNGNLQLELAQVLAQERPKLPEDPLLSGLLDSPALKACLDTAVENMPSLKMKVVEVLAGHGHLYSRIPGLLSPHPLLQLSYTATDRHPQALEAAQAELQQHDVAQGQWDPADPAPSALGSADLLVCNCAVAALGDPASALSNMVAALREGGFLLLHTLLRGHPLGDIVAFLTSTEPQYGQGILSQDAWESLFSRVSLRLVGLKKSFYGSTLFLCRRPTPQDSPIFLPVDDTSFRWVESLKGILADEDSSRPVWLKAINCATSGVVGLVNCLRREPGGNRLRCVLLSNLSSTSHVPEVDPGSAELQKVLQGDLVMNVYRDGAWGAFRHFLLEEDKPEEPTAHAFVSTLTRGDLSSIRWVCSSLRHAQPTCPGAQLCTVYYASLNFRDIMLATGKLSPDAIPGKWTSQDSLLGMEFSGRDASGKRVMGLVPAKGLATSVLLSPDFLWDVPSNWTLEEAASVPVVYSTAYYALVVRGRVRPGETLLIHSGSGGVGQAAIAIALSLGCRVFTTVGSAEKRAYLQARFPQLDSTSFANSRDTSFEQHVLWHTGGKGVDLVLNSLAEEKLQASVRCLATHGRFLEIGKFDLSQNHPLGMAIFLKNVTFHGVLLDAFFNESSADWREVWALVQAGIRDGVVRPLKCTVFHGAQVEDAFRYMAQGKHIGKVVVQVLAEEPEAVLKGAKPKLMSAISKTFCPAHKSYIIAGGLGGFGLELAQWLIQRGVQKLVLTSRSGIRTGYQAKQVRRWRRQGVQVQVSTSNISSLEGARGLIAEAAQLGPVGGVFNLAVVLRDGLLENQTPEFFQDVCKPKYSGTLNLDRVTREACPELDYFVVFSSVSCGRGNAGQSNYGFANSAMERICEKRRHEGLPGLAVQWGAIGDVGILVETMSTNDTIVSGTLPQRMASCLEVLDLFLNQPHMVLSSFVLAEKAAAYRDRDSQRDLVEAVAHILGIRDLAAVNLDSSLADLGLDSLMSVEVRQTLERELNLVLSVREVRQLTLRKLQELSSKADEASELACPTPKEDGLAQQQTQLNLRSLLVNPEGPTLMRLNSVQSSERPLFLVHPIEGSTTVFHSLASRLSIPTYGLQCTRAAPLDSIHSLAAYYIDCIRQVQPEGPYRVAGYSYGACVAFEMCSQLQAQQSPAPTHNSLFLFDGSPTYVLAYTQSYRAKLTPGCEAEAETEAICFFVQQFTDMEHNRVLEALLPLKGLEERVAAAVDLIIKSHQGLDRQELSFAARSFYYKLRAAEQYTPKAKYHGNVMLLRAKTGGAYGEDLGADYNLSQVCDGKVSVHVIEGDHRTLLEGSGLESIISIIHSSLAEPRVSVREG
Sequence of Bcl-2-like protein 1 (Q07817 whole entry): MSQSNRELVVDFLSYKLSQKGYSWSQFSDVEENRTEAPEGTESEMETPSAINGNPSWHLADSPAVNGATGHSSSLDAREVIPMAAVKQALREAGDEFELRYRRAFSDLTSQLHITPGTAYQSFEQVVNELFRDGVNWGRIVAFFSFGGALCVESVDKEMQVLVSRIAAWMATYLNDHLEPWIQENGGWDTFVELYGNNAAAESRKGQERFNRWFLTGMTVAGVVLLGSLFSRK
Sequence of Estrogen receptor beta (Q92731 whole entry): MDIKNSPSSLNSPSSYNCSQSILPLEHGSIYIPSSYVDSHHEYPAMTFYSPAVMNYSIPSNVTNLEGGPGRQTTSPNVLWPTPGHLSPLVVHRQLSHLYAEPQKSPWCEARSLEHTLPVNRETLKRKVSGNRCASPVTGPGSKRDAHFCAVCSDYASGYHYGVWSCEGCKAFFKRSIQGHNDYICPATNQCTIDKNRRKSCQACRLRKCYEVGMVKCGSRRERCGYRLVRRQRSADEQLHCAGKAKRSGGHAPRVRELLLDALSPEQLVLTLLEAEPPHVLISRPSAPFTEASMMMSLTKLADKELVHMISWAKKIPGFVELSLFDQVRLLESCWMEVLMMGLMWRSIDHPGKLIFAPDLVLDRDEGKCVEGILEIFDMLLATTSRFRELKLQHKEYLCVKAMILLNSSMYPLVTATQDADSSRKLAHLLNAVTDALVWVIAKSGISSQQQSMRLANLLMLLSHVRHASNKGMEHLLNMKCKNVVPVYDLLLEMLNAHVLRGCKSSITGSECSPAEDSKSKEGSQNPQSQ
Sequence of Beta-2 adrenergic receptor (P07550 whole entry, the tested form may be a part): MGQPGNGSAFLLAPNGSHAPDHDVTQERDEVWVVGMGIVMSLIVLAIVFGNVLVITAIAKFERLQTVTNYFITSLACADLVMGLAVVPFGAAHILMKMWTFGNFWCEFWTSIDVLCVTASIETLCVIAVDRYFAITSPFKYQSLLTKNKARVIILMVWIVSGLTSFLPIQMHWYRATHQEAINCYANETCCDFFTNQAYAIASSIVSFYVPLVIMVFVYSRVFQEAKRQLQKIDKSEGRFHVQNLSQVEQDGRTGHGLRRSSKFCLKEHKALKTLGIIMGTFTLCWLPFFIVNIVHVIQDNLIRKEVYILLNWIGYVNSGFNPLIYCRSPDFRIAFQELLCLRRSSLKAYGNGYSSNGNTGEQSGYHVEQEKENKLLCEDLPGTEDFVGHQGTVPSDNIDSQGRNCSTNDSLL
Sequence of Phospholipase A2 (P04054 whole entry): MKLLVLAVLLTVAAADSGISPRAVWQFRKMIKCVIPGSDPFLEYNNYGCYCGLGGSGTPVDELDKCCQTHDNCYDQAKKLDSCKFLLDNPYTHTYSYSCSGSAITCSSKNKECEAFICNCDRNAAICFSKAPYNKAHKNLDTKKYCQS

As for `N#Cc1cc(-c2ccccc2)nc(Oc2ccc(Cl)cc2)n1`, the EC50 (in general, the concentration that produces a half-maximal response) in test [1] is 1.25 µM (active). For the same compound, the IC50 (usually the concentration at which inhibition is half-maximal) was 9.1 µM (active) on Fatty acid synthase [2] and 7.97 µM (active) at Fatty acid synthase [3].

For `CCc1ccc(-c2nc(CSCC(=O)NC3CC3)c(C)o2)cc1`, the IC50 (in test [4]; in the test with HEK293) was > 80 µM (inactive) in each case.

`COc1ccc(C(=O)N2CCN(c3ccnc4cc(Cl)ccc34)CC2)cc1`: the AC50 – broadly, the concentration at which the activity in the assay is half-maximal – in the test on Candida albicans [5] was 4.15 µM (active); in the test on Candida albicans [6], 5.38 µM (active); in the test on Candida albicans [7] it was 4.25 µM (active); in the test with Candida albicans [8] it was 10.2 µM (active); with Candida albicans [9] it was 32.2 µM (active).

For `C/C(=N/NC(=O)c1cc2ccccc2cc1O)C1C(=O)c2ccccc2C1=O`, the figures for the CC50 in test [10], in test [11] and in [15] were 17.7 µM (active), 16.7 µM (active) and > 50 µM (active), respectively. For the same compound, the IC50 is 12 µM (active) at Aminopeptidase N; > 109 µM (not active) in test [12]; 4.87 µM (active) on Phospholipase A2; > 109 µM (not active) against Bcl-2-like protein 1; 2.11 µM (active) in [14]; 0.0588 µM (not active) at Estrogen receptor beta. In addition, at Cysteine protease ATG4B, the IC50 was 5.43 µM (active). Further, the EC50 was 1.03 µM (active) in test [13], > 150 µM (not active) on Streptokinase A and 10.1 µM (active) in the test on Streptococcus.

These data come from ChEMBL document CHEMBL1201862, “PubChem BioAssay data set” (2004).
